Key:
[1] = 1-day stability study of individual prodrugs in aqueous solution; assay type: physicochemical; conditions: aqueous solution 80 μg/mL, ambient storage
Procedure: The L-dopa phosphate prodrugs and the carbidopa phosphate prodrugs were evaluated in a stability study.

[2] = 1-day stability study, diphosphate combination solution; assay type: physicochemical; conditions: combined solution L-dopa 3′,4′-diphosphate 35 mg/mL + carbidopa 3′,4′-diphosphate 8.7 mg/mL, pH 6.2, room temperature, nitrogen purged
Procedure: In addition, a solution combining the diphosphates of each compound (L-dopa 3′, 4′-diphosphate at 35 mg/mL and carbidopa 3′, 4′-diphosphate at 8.7 mg/mL) was monitored over one day at room temperature. This sample was purged with nitrogen to remove oxygen.

[3] = Solubility study in water by visual assessment; assay type: physicochemical; conditions: for solubility: thermodynamic from solid, water, ambient
Procedure: The L-dopa phosphate prodrugs and the carbidopa phosphate prodrugs were evaluated in a solubility study. The solubility values of the phosphate prodrugs in water under ambient conditions were determined by visual assessment. Table 13-A reports the results of the study, including the measured values for L-dopa and carbidopa.

[4] = In vitro bioconversion study, blood (human); assay type: in vitro ADME; conditions: for half-life at 2.5 ug/mL / T1/2: prodrug 2.5 ug/mL, 37° C.
Procedure: (§1) In brief, the L-dopa and carbidopa phosphate prodrugs (2.5 ug/mL) were incubated with tissue homogenate or fractions from rats, mini-pigs, or human, including blood, skin homogenate (3 mg/mL), liver microsomes (1 mg/mL), liver S9 fraction (1 mg/mL), kidney S9 fraction (1 mg/mL), and intestine S9 fractions (1 mg/mL). The reaction mixtures were incubated at 37° C. for 5 to 6 time points within 1 to 2 hours. At the end of each time point, the reaction mixtures were quenched by 2 to 3 volumes of 5% trichloroacetic acid in water. After quenching, the mixtures were centrifuged at 3000 rpm for 20 minutes, and the supernatants were analyzed by LC-MS for quantitation of the prodrug, L-dopa or carbidopa. The in vitro bioconversion was assessed by monitoring both time-dependent depletion of the prodrug and the formation of the corresponding L-dopa or carbidopa.

[5] = In vitro bioconversion study, blood (rat); assay type: in vitro ADME; conditions: for half-life at 2.5 ug/mL: prodrug 2.5 ug/mL, 37° C.
Procedure: as §1

[6] = In vitro bioconversion study, blood (mini-pig); assay type: in vitro ADME; conditions: for half-life at 2.5 ug/mL: minipig; for half-life at 2.5 ug/mL / T1/2: prodrug 2.5 ug/mL, 37° C.
Procedure: as §1

[7] = In vitro bioconversion study, skin homogenates (human); assay type: in vitro ADME; conditions: for L-Dopa or Carbidopa Formation: human skin homogenate
Procedure: (§2) The in vitro bioconversion of the L-dopa phosphate prodrugs to L-dopa and the carbidopa phosphate prodrugs to carbidopa was evaluated in several studies. In brief, the L-dopa and carbidopa phosphate prodrugs (2.5 ug/mL) were incubated with tissue homogenate or fractions from rats, mini-pigs, or human, including blood, skin homogenate (3 mg/mL), liver microsomes (1 mg/mL), liver S9 fraction (1 mg/mL), kidney S9 fraction (1 mg/mL), and intestine S9 fractions (1 mg/mL). The reaction mixtures were incubated at 37° C. for 5 to 6 time points within 1 to 2 hours. At the end of each time point, the reaction mixtures were quenched by 2 to 3 volumes of 5% trichloroacetic acid in water. After quenching, the mixtures were centrifuged at 3000 rpm for 20 minutes, and the supernatants were analyzed by LC-MS for quantitation of the prodrug, L-dopa or carbidopa. The in vitro bioconversion was assessed by monitoring both time-dependent depletion of the prodrug and the formation of the corresponding L-dopa or carbidopa.

[8] = In vitro bioconversion study, skin homogenates (rat); assay type: in vitro ADME; conditions: for L-Dopa or Carbidopa Formation: rat skin homogenate
Procedure: as §1

[9] = In vitro bioconversion study, skin homogenates (mini-pig); assay type: in vitro ADME; conditions: for L-Dopa or Carbidopa Formation: mini-pig skin homogenate
Procedure: as §1

[10] = In vitro bioconversion study, human liver microsomes; assay type: in vitro ADME; conditions: human liver microsomes 1 mg/mL
Procedure: as §2

[11] = In vitro bioconversion study, liver S9 fraction (rat); assay type: in vitro ADME; conditions: rat liver S9 fraction 1 mg/mL
Procedure: as §2

[12] = In vitro bioconversion study, liver S9 fraction (mini-pig); assay type: in vitro ADME; conditions: mini-pig liver S9 fraction 1 mg/mL
Procedure: as §2

[13] = In vitro bioconversion study, liver S9 fraction (human); assay type: in vitro ADME; conditions: human liver S9 fraction 1 mg/mL
Procedure: as §2

[14] = In vitro bioconversion study, kidney S9 fraction (rat); assay type: in vitro ADME; conditions: rat kidney S9 fraction 1 mg/mL
Procedure: as §2

[15] = In vitro bioconversion study, kidney S9 fraction (human); assay type: in vitro ADME; conditions: human kidney S9 fraction 1 mg/mL
Procedure: as §2

[16] = In vitro bioconversion study, intestinal S9 fractions (human); assay type: in vitro ADME; conditions: for L-Dopa or Carbidopa Formation: human intestinal S9 fraction; for half-life at 2.5 ug/mL: human intestinal S9 fraction 1 mg/mL
Procedure: as §2

[17] = In vitro bioconversion study, intestinal S9 fractions (rat); assay type: in vitro ADME; conditions: for L-Dopa or Carbidopa Formation: rat intestinal S9 fraction; for half-life at 2.5 ug/mL: rat intestinal S9 fraction 1 mg/mL
Procedure: as §2

[18] = Pharmacokinetic study in rats, individual prodrug IV or SC; assay type: in vivo, Sprague-Dawley rats; conditions: rat, dose 8.5 mg/kg
Procedure: For comparison, a rat pharmacokinetics study with L-dopa and carbidopa was conducted to help assess the in vivo conversion of the prodrugs. The study design and measured exposures of L-dopa and carbidopa are summarized in Tables 16-A and 16-B, respectively. In brief, groups of three male Sprague-Dawley rats were given (1) L-dopa and carbidopa in aqueous solution, or (2) the individual prodrug in aqueuous solution intravenously or subcutaneously. Blood samples were collected at multiple time points over 24 hours into a collection tube containing NaAsO4, EDTA, and ascorbic acid. […] The supernatants were subjected to LC-MS analysis for quantitation of prodrug, L-dopa or carbidopa.

[19] = Local tolerability, single SC bolus in rats; assay type: in vivo; conditions: concentrations up to 125 mg/mL
[20] = Carbidopa diphosphate pharmacokinetics study in mini-pigs; assay type: in vivo; conditions: mini-pig, SC, dose 8.5 mg/kg
Procedure: The in vivo conversion of the carbidopa diphosphate to carbidopa was evaluated in a mini-pig pharmacokinetics study in which the prodrug was administered in aqueous solution subcutaneously to a group of three mini-pigs. For comparison, a pharmacokinetics study with carbidopa also was conducted to help assess the in vivo conversion of the carbidopa prodrugs. The estimated in vivo conversion of the carbidopa diphosphate to carbidopa was approximately 100%, based on the carbidopa exposures.

[21] = 7-day stability study, 4′-monophosphate combination solution; assay type: physicochemical; conditions: combined solution L-dopa 4′-monophosphate 200 mg/mL + carbidopa 4′-monophosphate 50 mg/mL, pH 7.4, room temperature
Procedure: In addition, a solution combining the L-dopa 4′-monophosphate at 200 mg/mL and carbidopa 4′-monophosphate at 50 mg/mL was monitored over 7 days at room temperature. These samples were prepared with and without purging with nitrogen to remove oxygen.

[22] = assay type: in vivo, rats; conditions: rat, 4:1 combination, SC bolus 60/14 mg/kg then SC infusion 300/71 mg/kg
Procedure: After 1.5 hours, the combination was dosed again via continuous infusion at a dose of 300/71 mg/kg over next 14.5 hours. Blood samples were collected at 0, 0.25, 1, 6, 16, and 24 hours post dose. […] FIG. 7 provides a time-concentration profile for L-dopa and L-dopa 4′-monophosphate blood levels after administration of the combination of 4′-monophosphate prodrugs at a 4:1 ratio. […] Steady state concentration of ˜1 μg/mL was maintained over the infusion period for carbidopa. […] FIG. 9 provides a time-concentration profile for carbidopa and carbidopa 4′-monophosphate blood levels after administration of the combination of 4′-monophosphate prodrugs at a 4:1 ratio.

[23] = mini-pig, 15:1 combination 48/3.2 mg/kg
Procedure: In this study, the pig received a 16-hour subcutaneous infusion of a combination of the L-dopa 4′-monophosphate and the carbidopa 4′-monophosphate together in an aqueous solution at a dose ratio of 15:1 without an initial bolus dose. The doses were 48/3.2 mg/kg for L-dopa 4′-monophosphate and the carbidopa 4′-monophosphate, respectively.

[24] = human skin homogenate 3 mg/mL, 37° C.
[25] = rat skin homogenate 3 mg/mL, 37° C.
[26] = mini-pig skin homogenate 3 mg/mL, 37° C.
[27] = listed as 3′,4′-diphosphate prodrug of carbidopa
[28] = listed as diphosphate prodrug of carbidopa

SMILES | % Remaining After One Day [2] [%] | solubility ([3]; pH 5.5, amorphous) [mg/mL] | L-Dopa or Carbidopa Formation [4] | half-life at 2.5 ug/mL [4] [h] | L-Dopa or Carbidopa Formation [5] | half-life at 2.5 ug/mL [5] [h] | L-Dopa or Carbidopa Formation [6] | L-Dopa or Carbidopa Formation [7] | L-Dopa or Carbidopa Formation [8] | L-Dopa or Carbidopa Formation [9] | stability and L-dopa or carbidopa formation [10] | stability and L-dopa or carbidopa formation [11] | stability and L-dopa or carbidopa formation [12] | stability and L-dopa or carbidopa formation [13] | stability and L-dopa or carbidopa formation [14] | stability and L-dopa or carbidopa formation [15] | L-Dopa or Carbidopa Formation [16] | half-life at 2.5 ug/mL [16] [h] | L-Dopa or Carbidopa Formation [17] | half-life at 2.5 ug/mL [17] [h] | also measured
N[C@@H](Cc1ccc(OP(=O)(O)O)c(OP(=O)(O)O)c1)C(=O)O [L-dopa 3′,4′-diphosphate] | >99 | > 330 | Yes | 2.3 | Yes | 0.1 | Yes | No | No | No | stable without formation of L-dopa or carbidopa observed | stable without formation of L-dopa or carbidopa observed | stable without formation of L-dopa or carbidopa observed | stable without formation of L-dopa or carbidopa observed | stable without formation of L-dopa or carbidopa observed | stable without formation of L-dopa or carbidopa observed | Yes | 1.53 | Yes | 0.903 | % Remaining After One Day ([1]; pH 7.0): >99%; half-life at 2.5 ug/mL [6]: 2.08 h; T1/2 [7, 24]: stable; T1/2 [8, 25]: stable; T1/2 [9, 26]: stable; Estimated Conversion % (Based on L-dopa AUC) ([18]; IV): >100%; Estimated Conversion % (Based on L-dopa AUC) ([18]; SC): >100%; local intolerance (clinical signs, microscopic findings) [19]: no adverse clinical signs or microscopic findings indicative of local intolerance
C[C@@](Cc1ccc(OP(=O)(O)O)c(OP(=O)(O)O)c1)(NN)C(=O)O [Carbidopa 3′,4′-diphosphate] | >99 | > 247 | No |  | Yes | 0.883 | No | No | No | No | stable without formation of L-dopa or carbidopa observed | stable without formation of L-dopa or carbidopa observed | stable without formation of L-dopa or carbidopa observed | stable without formation of L-dopa or carbidopa observed | stable without formation of L-dopa or carbidopa observed | stable without formation of L-dopa or carbidopa observed | Yes | 0.525 | Yes | 1.32 | % Remaining After One Day ([1]; pH 6.8): >97%; T1/2 [4, 27]: stable; T1/2 [4, 28]: not dephosphorylated; T1/2 [6, 27]: stable; T1/2 [6, 28]: not dephosphorylated; T1/2 [7, 24]: stable; T1/2 [8, 25]: stable; T1/2 [9, 26]: stable; Estimated Conversion % (Based on Carbidopa AUC) [20, 27]: 100%; Estimated Conversion % (Based on Carbidopa AUC) ([20]; listed as carbidopa diphosphate): approximately 100%
C[C@@](Cc1ccc(OP(=O)(O)O)c(O)c1)(NN)C(=O)O [Carbidopa 4′-phosphate, Carbidopa 4′-monophosphate] |  |  | Yes | 1.08 | Yes | 0.248 | Yes | Yes | Yes | Yes | stable without formation of L-dopa or carbidopa observed | stable without formation of L-dopa or carbidopa observed | stable without formation of L-dopa or carbidopa observed | stable without formation of L-dopa or carbidopa observed | stable without formation of L-dopa or carbidopa observed | stable without formation of L-dopa or carbidopa observed | Yes | 0.402 | Yes | 1.23 | % Remaining After One Day ([1]; pH 6.8): >98%; % Remaining After 7 Days ([21]; Nitrogen Purged): >99%; % Remaining After 7 Days ([21]; Non-Purged): >97%; solubility compared to L-dopa and carbidopa ([3]; FIG. 1, pH of 7.4): increased solubility; solubility ([3]; pH 7.4, L-dopa 4′-phosphate crystalline, carbidopa 4′-phosphate amorphous): > 200 mg/mL; half-life at 2.5 ug/mL [6]: 0.147 h; half-life at 2.5 ug/mL [7, 24]: 2.3 h; half-life at 2.5 ug/mL [8, 25]: 4.52 h; half-life at 2.5 ug/mL ([9]; minipig, mini-pig skin homogenate 3 mg/mL, 37° C.): 1.9 h; Exposure of the remaining carbidopa 4′-monophosphate, % of carbidopa [22]: ~8%; Exposure of the remaining carbidopa 4′-monophosphate, % of the carbidopa exposure [23]: ~22%

From patent US10730895B2, “Carbidopa prodrug” (AbbVie Inc., priority 2014, dated 2020)
